pIC50: −log10 of the molar value.
Tests used:
[1] = Determination of metabolic stability with human liver microsomes; conditions: pooled human liver microsomes; for half-life at 1 μM: human, pH 7.6
[2] = target: recombinant human DPPI (Cathepsin C) (Homo sapiens (Human), UniProt P53634); experiment: Inhibition of human DPPI (Cathepsin C); assay type: biochemical; conditions: substrate Gly-Arg-AMC
Method in brief: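 Recombinant human DPPI in MES buffer pH 6.0 (5 mM DTT, 0.1% BSA); fluorogenic substrate at 50 μM final, 30 min at room temperature, stopped with 1 μM Gly-Phe-DMK. Background-subtracted fluorescence expressed as percent of vehicle control; IC50 derived.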

[3] = target: recombinant human Cathepsin K (Homo sapiens (Human), UniProt P43235); experiment: Inhibition of human Cathepsin K; assay type: biochemical; conditions: substrate Z-Gly-Pro-Arg-AMC
Sequence of recombinant human Cathepsin K (P43235 115-329): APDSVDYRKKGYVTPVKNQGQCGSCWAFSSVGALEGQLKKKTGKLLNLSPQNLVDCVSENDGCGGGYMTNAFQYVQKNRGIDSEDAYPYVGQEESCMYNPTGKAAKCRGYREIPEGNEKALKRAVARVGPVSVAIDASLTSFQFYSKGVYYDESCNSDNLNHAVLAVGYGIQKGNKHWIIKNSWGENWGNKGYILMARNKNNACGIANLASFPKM
Method in brief: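 Proenzyme activated in pH 3.5 sodium acetate for 30 min at room temperature. Enzyme (2 ng/μL final) preincubated 10 min with compound (0.1 nM–100 μM, 1% DMSO) in pH 5.5 acetate/EDTA/L-cysteine buffer, then reacted 60 min at room temperature with Z-Gly-Pro-Arg-AMC. Stopped with 1 μM E64; fluorescence Ex 360/Em 460 nm; IC50 from background-subtracted percent of vehicle control.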

Sequence of recombinant human DPPI (Cathepsin C) (P53634 231-394): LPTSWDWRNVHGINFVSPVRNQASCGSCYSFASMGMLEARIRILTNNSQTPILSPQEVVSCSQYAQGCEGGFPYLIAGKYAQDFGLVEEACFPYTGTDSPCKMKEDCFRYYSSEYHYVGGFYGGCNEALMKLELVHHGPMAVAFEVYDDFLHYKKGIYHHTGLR
Sequence of recombinant human DPPI (Cathepsin C) (P53634 395-463): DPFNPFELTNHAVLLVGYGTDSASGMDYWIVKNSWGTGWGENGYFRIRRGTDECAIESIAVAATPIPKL
Sequence of recombinant human DPPI (Cathepsin C) (P53634 25-134): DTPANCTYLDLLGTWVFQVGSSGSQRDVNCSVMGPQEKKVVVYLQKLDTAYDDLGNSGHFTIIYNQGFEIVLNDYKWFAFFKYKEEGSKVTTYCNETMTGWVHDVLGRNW

| SMILES | half-life at 1 μM [1] | pIC50 [2] | pIC50 [3] | In vitro stability in human liver microsome incubations t½ ([1]; 1 μM test compound, 37° C., NADPH) |
| --- | --- | --- | --- | --- |
| N#C[C@H](Cc1ccc(-n2cc(C3CC3)nn2)cc1F)NC(=O)[C@H]1N[C@@H]2CC[C@H]1C2 [Example 67] | 1.48 h | 8.02 | 5.34 | – |
| CCS(=O)(=O)c1ccc(-c2ccc(CC(C#N)NC(=O)[C@H]3N[C@@H]4CC[C@H]3C4)c(F)c2)cc1 (stereo partly drawn) [Example 71] | > 2 h | 7.97 | 5.32 | – |
| CN1Cc2cc(-c3ccc(CC(C#N)NC(=O)[C@H]4N[C@@H]5CC[C@H]4C5)c(F)c3)ccc2C1=O (stereo partly drawn) [Example 76] | 1.4 h | 7.93 | 5.28 | – |
| COc1ccc(-c2cn(-c3ccc(C[C@@H](C#N)NC(=O)[C@H]4N[C@@H]5CC[C@H]4C5)c(F)c3)nn2)cc1OC [Example 77] | > 2.17 h | 7.92 | 5.28 | – |
| N#CC(Cc1ccc(-c2cnn(-c3ccccc3)c2)cc1F)NC(=O)[C@H]1N[C@@H]2CC[C@H]1C2 (stereo partly drawn) [Example 78] | – | 7.92 | 5.17 | 2.17 h |
| CCC(C)(O)Cc1cn(-c2ccc(C[C@@H](C#N)NC(=O)[C@H]3N[C@@H]4CC[C@H]3C4)c(F)c2)nn1 (stereo partly drawn) [Example 82] | > 2.17 h | 7.88 | 5.27 | – |
| N#CC(Cc1ccc(-c2ccc(C(N)=O)cc2)cc1F)NC(=O)[C@H]1N[C@@H]2CC[C@H]1C2 (stereo partly drawn) [Example 83] | > 2.17 h | 7.88 | 5.29 | – |
| CS(=O)(=O)c1ccc(-c2ccc(C[C@@H](C#N)NC(=O)[C@H]3N[C@@H]4CC[C@H]3C4)c(F)c2)c(F)c1 [Example 86] | > 2.17 h | 7.85 | 5.17 | – |
| CS(=O)(=O)c1cccc(-c2ccc(CC(C#N)NC(=O)[C@H]3N[C@@H]4CC[C@H]3C4)c(F)c2)c1 (stereo partly drawn) [Example 88] | > 2.17 h | 7.82 | 5.06 | – |
| CCC(O)Cc1cn(-c2ccc(C[C@@H](C#N)NC(=O)[C@H]3N[C@@H]4CC[C@H]3C4)c(F)c2)nn1 (stereo partly drawn) [Example 89] | > 2.17 h | 7.81 | 5.27 | – |
| CC(=O)c1cn(-c2ccc(C[C@@H](C#N)NC(=O)[C@H]3N[C@@H]4CC[C@H]3C4)c(F)c2)nn1 [Example 90] | > 2.17 h | 7.80 | 5.46 | – |
| CS(=O)(=O)N1CCN(c2ccc(C[C@@H](C#N)NC(=O)[C@H]3N[C@@H]4CC[C@H]3C4)c(F)c2)CC1 [Example 91] | > 2.17 h | 7.77 | 5.60 | – |
| N#C[C@H](Cc1ccc(-c2ccc3c(c2)C(=O)NC3)cc1F)NC(=O)[C@H]1N[C@@H]2CC[C@H]1C2 [Example 95] | > 2.17 h | 7.72 | 5.44 | – |
| N#C[C@H](Cc1ccc(-c2cc(-c3ccccc3)no2)cc1F)NC(=O)[C@H]1N[C@@H]2CC[C@H]1C2 [Example 96] | 1.37 h | 7.70 | 5.26 | – |
| N#CC(Cc1ccc(-c2ncc(Cl)cn2)cc1F)NC(=O)[C@H]1N[C@@H]2CC[C@H]1C2 (stereo partly drawn) [Example 98] | > 2.17 h | 7.69 | 5.08 | – |
| N#C[C@H](Cc1ccc(-n2cc(CCN3CCOCC3)nn2)cc1F)NC(=O)[C@H]1N[C@@H]2CC[C@H]1C2 [Example 99] | > 2.17 h | 7.68 | 5.54 | – |
| Cn1nc(C(F)(F)F)cc1-c1ccc(C[C@@H](C#N)NC(=O)[C@H]2N[C@@H]3CC[C@H]2C3)c(F)c1 [Example 100] | > 2.17 h | 7.65 | 5.09 | – |
| N#CC(Cc1ccc(-c2cnc(Cl)cn2)cc1F)NC(=O)[C@H]1N[C@@H]2CC[C@H]1C2 (stereo partly drawn) [Example 102] | > 2.17 h | 7.61 | 5.37 | – |
| CCOCc1cn(-c2ccc(C[C@@H](C#N)NC(=O)[C@H]3N[C@@H]4CC[C@H]3C4)c(F)c2)nn1 [Example 105] | > 2.17 h | 7.60 | 5.28 | – |
| N#C[C@H](Cc1ccc(-n2cc(COC(=O)N3CCCC3)nn2)cc1F)NC(=O)[C@H]1N[C@@H]2CC[C@H]1C2 [Example 106] | > 2.17 h | 7.59 | 5.28 | – |
| N#CC(Cc1ccc(-c2ccc(Cl)nn2)cc1F)NC(=O)[C@H]1N[C@@H]2CC[C@H]1C2 (stereo partly drawn) [Example 108] | > 2.17 h | 7.58 | 5.03 | – |
| CC(C)C(O)Cc1cn(-c2ccc(C[C@@H](C#N)NC(=O)[C@H]3N[C@@H]4CC[C@H]3C4)c(F)c2)nn1 (stereo partly drawn) [Example 109] | > 2.17 h | 7.57 | 5.35 | – |
| CCn1nccc1-c1ccc(C[C@@H](C#N)NC(=O)[C@H]2N[C@@H]3CC[C@H]2C3)c(F)c1 [Example 110] | > 2.17 h | 7.54 | 5.01 | – |

| SMILES | half-life at 1 μM [1] | pIC50 [2] | pIC50 [3] | In vitro stability in human liver microsome incubations t½ ([1]; 1 μM test compound, 37° C., NADPH) |
| --- | --- | --- | --- | --- |
| COCc1cn(-c2ccc(C[C@@H](C#N)NC(=O)[C@H]3N[C@@H]4CC[C@H]3C4)c(F)c2)nn1 [Example 111] | > 2.17 h | 7.50 | 5.37 | – |
| COCCOCc1cn(-c2ccc(C[C@@H](C#N)NC(=O)[C@H]3N[C@@H]4CC[C@H]3C4)c(F)c2)nn1 [Example 112] | > 2.17 h | 7.48 | 5.25 | – |
| N#C[C@H](Cc1ccc(-c2cc[nH]n2)cc1F)NC(=O)[C@H]1N[C@@H]2CC[C@H]1C2 [Example 114] | > 2.17 h | 7.44 | 5.17 | – |
| N#CC(Cc1ccc(-c2cnn(C3CCOCC3)c2)cc1F)NC(=O)[C@H]1N[C@@H]2CC[C@H]1C2 (stereo partly drawn) [Example 116] | > 2.17 h | 7.41 | 5.11 | – |
| CN1CCC(c2ccc(C[C@@H](C#N)NC(=O)[C@H]3N[C@@H]4CC[C@H]3C4)c(F)c2)CC1 [Example 117] | > 2.17 h | 7.40 | 5.57 | – |
| N#Cc1ccc(-c2ccc(C[C@@H](C#N)NC(=O)[C@H]3N[C@H]4C[C@@H]3[C@@H]3C[C@@H]34)c(F)c2)cc1F [Example 132] | > 2.17 h | 7.72 | 4.91 | – |
| N#C[C@H](Cc1ccc(-c2ccc(S(N)(=O)=O)cc2)cc1F)NC(=O)[C@H]1N[C@H]2C[C@@H]1[C@@H]1C[C@@H]12 [Example 136] | > 2.17 h | 7.99 | 5.21 | – |
| CS(=O)(=O)Nc1cccc(-c2ccc(C[C@@H](C#N)NC(=O)[C@H]3N[C@H]4C[C@@H]3[C@@H]3C[C@@H]34)c(F)c2)c1 [Example 139] | > 2.17 h | 7.93 | 5.32 | – |
| N#C[C@H](Cc1ccc(-c2cccc(S(N)(=O)=O)c2)cc1F)NC(=O)[C@H]1N[C@H]2C[C@@H]1[C@@H]1C[C@@H]12 [Example 143] | > 2.17 h | 8.17 | 5.29 | – |
| N#C[C@H](Cc1ccc(-c2ccc3c(c2)CNC3=O)cc1F)NC(=O)[C@H]1N[C@H]2C[C@@H]1[C@@H]1C[C@@H]12 [Example 147] | > 2.17 h | 8.21 | 5.01 | – |
| CS(=O)(=O)c1cc(-c2ccc(C[C@@H](C#N)NC(=O)[C@H]3N[C@@H]4CC[C@H]3C4)c(F)c2)ccc1F [Example 152] | > 2.17 h | 8.68 | 5.21 | – |
| N#C[C@H](Cc1ccc(-c2cccc(S(=O)(=O)C3CC3)c2)cc1F)NC(=O)[C@H]1N[C@@H]2CC[C@H]1C2 [Example 153] | 1.83 h | 8.42 | 5.36 | – |
| N#C[C@H](Cc1ccc(N2CCN(CC3CCCO3)CC2)cc1F)NC(=O)[C@H]1N[C@@H]2CC[C@H]1C2 (stereo partly drawn) [Example 154] | > 2.17 h | 7.87 | 5.34 | – |
| CN1CCN(S(=O)(=O)c2ccc(-c3ccc(C[C@@H](C#N)NC(=O)[C@H]4N[C@@H]5CC[C@H]4C5)c(F)c3)cc2)CC1 [Example 155] | 1.03 h | 9.10 | 6.00 | – |
| CC1(C)OC(=O)c2ccc(-c3ccc(C[C@@H](C#N)NC(=O)[C@H]4N[C@@H]5CC[C@H]4C5)c(F)c3)cc21 [Example 156] | 1.58 h | 9.22 | 5.11 | – |
| N#C[C@H](Cc1ccc(-c2csc(C(N)=O)c2)cc1F)NC(=O)[C@H]1N[C@@H]2CC[C@H]1C2 [Example 157] | > 2.17 h | 9.05 | 5.13 | – |
| COCCN1C(=O)Cc2ccc(-c3ccc(C[C@@H](C#N)NC(=O)[C@H]4N[C@@H]5CC[C@H]4C5)c(F)c3)cc21 [Example 158] | > 2.17 h | 8.82 | 5.03 | – |
| CS(=O)(=O)c1ccc(-c2ccc(C[C@@H](C#N)NC(=O)[C@H]3N[C@@H]4CC[C@H]3C4)c(F)c2)cc1C#N [Example 159] | > 2.17 h | 8.80 | 5.48 | – |
| N#C[C@H](Cc1ccc(-c2ccc(C(N)=O)o2)cc1F)NC(=O)[C@H]1N[C@@H]2CC[C@H]1C2 [Example 167] | > 2.17 h | 8.47 | 5.20 | – |
| CS(=O)(=O)c1ccc(-c2ccc(C[C@@H](C#N)NC(=O)[C@H]3N[C@@H]4CC[C@H]3C4)c(F)c2F)cc1 [Example 176] | > 2.17 h | 8.18 | 4.86 | – |
| N#C[C@H](Cc1ccc(-c2ccc3c(c2)NC(=O)C3)c(F)c1F)NC(=O)[C@H]1N[C@@H]2CC[C@H]1C2 [Example 181] | > 2.17 h | 8.07 | 5.01 | – |
| COCCN1CCN(c2ccc(C[C@@H](C#N)NC(=O)[C@H]3N[C@@H]4CC[C@H]3C4)c(F)c2)CC1 [Example 182] | > 2.17 h | 8.06 | 5.46 | – |
